From patent US7632863B2, “3,4,5,4′-tetramethoxyl-α,β-diphenylethane-3′-O-sodium sulphate and its use” (The Jian Cell Biomedical Research Co., Ltd., priority 2007, dated 2009)
“Also recorded” adds a separate entry of the source. Read-outs that look alike come from different tables or passages of the source.

Assays:
KunMing (KM) mice = assay: LD50 determination, tail vein injection; format: in vivo
Protocol: 1. Experimental animal: KunMing (KM) mice, provided by Shanghai Slac Laboratory Animal Co., Ltd., half and half of female and male, 6 groups, ten in each group, marked by bitter acid.
2. […] Preparing medical solution of equal ratio: dissolving with 0.9% NaCl to prepare the medical solution with the concentration of 336 mg/7 ml, 316.96 mg/7 ml, 299.32 mg/7 ml, 282.52 mg/7 ml, 266.84 mg/7 ml, 252 mg/7 ml.
3. Dosage for administration: with 0.5 ml/20 g bottom up.
4. Means of administration: tail vein injection
5. Experimental method: observing at 0.25 h, 0.5 h, 1 h, 2 h, 4 h, 24 h respectively after administration; then observing once every day 14 days; putting the mice still alive to death on the 15th day and recording the death rate.

S180 sarcoma [1] = conditions: for 0 d weight / 11 d weight without tumor / Tumor inhibiting rate % / Tumor weight: i.v., S180 sarcoma-bearing mice
From the text: (§1) (1) Sample: 3,4,5,4′-tetramethoxyl-α,β-diphenylethane-3′-O-sodium sulphate (AS) provided by Zhejiang Cell Biomedical Research Co., Ltd., and prepared by the process in Example One. Dissolved by physiological saline for the concentration needed.
(2) Cisplatin: Cisplatin for injection (DDP), Qilu Pharmaceutical Co., Ltd. Batch No.: 5120282DC. Dissolved by physiological saline for preparation.
(3) Control product: Cyclophosphamide for injection (CTX), Jiangsu Hengrui Pharmaceutical Inc. Co. Batch No.: 04123021 Dissolved by physiological saline for preparation.
(§2) (1) KM mouse bearing S180 sarcoma.
(2) 70 KM mice, female, weighting 18-22 g, provided by Zhejing College of Traditional Chinese Medicine.
(1) Drawing ascites under aseptic condition from mouse bearing S180 sarcoma, diluting with physiologic saline 1:3, giving subcutaneous inoculation in the armpit of the right forelimb of the KM mice with 0.2 ml each; dividing the mice into 7 groups randomly the next day, 10 in each group.
(§3) (2) Administering drug to the mice by weight the third day of inoculation, intravenous administration 0.5 ml/20 g […], by weight, and putting them to death on the 11th day after inoculation, weighing the tumor and calculating the rate of tumor inhibition.
(§4) (3) dosage (mg/kg/d) and means of administration:
(§5) AS: 50 mg/kg, tail vein injection
(§6) AS: 100 mg/kg, tail vein injection
(§7) AS: 200 mg/kg, tail vein injection
DDP: 1 mg/kg, tail vein injection
AS+DDP: 50 mg/kg+1 mg/kg, tail vein injection
(§8) CTX: 30 mg/kg, tail vein injection
(§9) Setting up another blank control group, tail vein injection of 0.9% NaCl 0.5 ml.
(§10) (4) Judging the result with the following formula: […]

S180 sarcoma [2] = conditions: for 0 d weight / 11 d weight without tumor / Tumor inhibiting rate % / Tumor weight: i.v., S180 sarcoma-bearing mice; remark: listed apart in the source
From the text: as §1
(2) Control product: Cyclophosphamide for injection (CTX), Jiangsu Hengrui Pharmaceutical Inc. Co. Batch No.: 04123021 Dissolved by physiological saline for preparation.
as §2
(2) 50 KM mice, female, weighting 18-22 g, provided by Zhejing College of Traditional Chinese Medicine.
(1) Drawing ascites under aseptic condition from mouse bearing S180 sarcoma, diluting with physiologic saline 1:3, giving subcutaneous inoculation in the armpit of the right forelimb of the KM mice with 0.2 ml each; dividing the mice into 5 groups randomly the next day, 10 in each group.
as §3, §4, §5, §6, §7, §8, §9, §10

Water solubility = format: physicochemical
Lewis lung cancer = assay: Joint administration of AS and DDP, murine model of Lewis lung cancer (Example Five); format: in vivo, C57BL/6J mice; conditions: for Tumor inhibiting rate % / Tumor weight: i.v., mice bearing Lewis lung cancer
From the text: (1) Sample: 3,4,5,4′-tetramethoxyl-α,β-diphenylethane-3′-O-sodium sulphate (AS), raw material medicine, provided by Zhejiang Cell Biomedical Research Co., Ltd., and prepared by the process in Example One. Batch No.: 061025. Dissolved by physiological saline for the concentration needed.
(2) Cisplatin: Cisplatin for injection (DDP), Qilu Pharmaceutical Co., Ltd. Batch No.: 5120282DC; Dissolved by physiological saline for preparation
(3) Control product: Cyclophosphamide for injection (CTX), Jiangsu Hengrui Pharmaceutical Inc. Co. Batch No.: 04123021. Dissolved by physiological saline for preparation.
(1) C57BL/6J mouse bearing Lewis lung cancer
(2) 70 C57BL/6J mice, female, weighing 17-21 g. Provided by the animal house of Zhejiang Cell Biomedical Research Co., Ltd.
(1) Taking tumor from C57BL/6J mouse under aseptic condition, grinding and diluting it by physiological saline 1:3 (weight:volume), and giving hypodermic inoculation 0.2 ml per mouse in the armpit of the right forelimb of each mouse. dividing the mice into 7 groups randomly the next day, 10 in each group.
(2) After inoculation, waiting till the tumor has grown to the accessible size, administering medicine according to body weight, 0.5 ml/20 g intravenous, for 11 days, putting the mice to death on the 19th after inoculation, taking out and weighing the tumor, and calculating the tumor inhibiting rate.
as §10

[3] = 1132 mg/kg, tail vein injection
[4] = 1200 mg/kg, tail vein injection

In the case of `COc1ccc(CCc2cc(OC)c(OC)c(OC)c2)cc1OS(=O)(=O)[O-].[Na+]` [AS, 3,4,5,4′-tetramethoxyl-α,β-diphenylethane-3′-O-sodium sulphate], the “Deaths days 1 ♂” value (KunMing (KM) mice; [3]) is reported as 0, the “Deaths days 2 ♀” value (KunMing (KM) mice; [3]) is reported as 0 and the “Deaths days 2 ♂” value (KunMing (KM) mice; [3]) is reported as 0. The “Deaths days 3 ♀” value (KunMing (KM) mice; [3]) was 0, the “Deaths days 3 ♂” value (KunMing (KM) mice; [3]) was 0 and the “Deaths days 4 ♀” value (KunMing (KM) mice; [3]) was 0. The “Deaths days 4 ♂” value (KunMing (KM) mice; [3]) was 0, the “Deaths hours 0-4 ♀” value (KunMing (KM) mice; [3]) was 3 and the “Deaths hours 0-4 ♂” value (KunMing (KM) mice; [3]) was 3. The “Death rate in total % Total” value (KunMing (KM) mice; [4]) was 70%, the “Death rate in total % ♀” value (KunMing (KM) mice; [4]) was 40% and the “Death rate in total % ♂” value (KunMing (KM) mice; [4]) was 100%. For the same molecule, the “Deaths days 1 ♀” value (KunMing (KM) mice; [4]) was 0, the “Deaths days 1 ♂” value (KunMing (KM) mice; [4]) was 0 and the “Deaths days 2 ♀” value (KunMing (KM) mice; [4]) was 0. For the same molecule, the “Deaths days 2 ♂” value (KunMing (KM) mice; [4]) was 0, the “Deaths days 3 ♀” value (KunMing (KM) mice; [4]) was 0 and the “Deaths days 3 ♂” value (KunMing (KM) mice; [4]) was 0. For the same molecule, the “Deaths days 4 ♀” value (KunMing (KM) mice; [4]) was 0, the “Deaths days 4 ♂” value (KunMing (KM) mice; [4]) was 0 and the “Deaths hours 0-4 ♀” value (KunMing (KM) mice; [4]) was 2. For the same molecule, the “Deaths hours 0-4 ♂” value (KunMing (KM) mice; [4]) was 5, the “toxicity (in words)” value (KunMing (KM) mice; conclusion from LD50) was “very low” and the 0 d weight (S180 sarcoma [1]; Dosage 50 mg/kg) was 21.06 ± 0.82 g. For the same molecule, the “11 d weight without tumor” value (S180 sarcoma [1]; Dosage 50 mg/kg) was 25.89 ± 3.32 g, the “Tumor inhibiting rate %” value (S180 sarcoma [1]; Dosage 50 mg/kg) was 44% and the Tumor weight (S180 sarcoma [1]; Dosage 50 mg/kg) was 1.63 ± 1.43 g. The 0 d weight (S180 sarcoma [1]; Dosage 100 mg/kg) was 20.46 ± 1.03 g, the “11 d weight without tumor” value (S180 sarcoma [1]; Dosage 100 mg/kg) was 28.42 ± 4.13 g and the “Tumor inhibiting rate %” value (S180 sarcoma [1]; Dosage 100 mg/kg) was 29%. The Tumor weight (S180 sarcoma [1]; Dosage 100 mg/kg) was 2.07 ± 1.03 g, the 0 d weight (S180 sarcoma [1]; Dosage 200 mg/kg) was 20.45 ± 0.86 g and the “11 d weight without tumor” value (S180 sarcoma [1]; Dosage 200 mg/kg) was 27.10 ± 2.44 g. For the same molecule, the “Tumor inhibiting rate %” value (S180 sarcoma [1]; Dosage 200 mg/kg) was 54%, the Tumor weight (S180 sarcoma [1]; Dosage 200 mg/kg) was 1.34 ± 0.53 g and the “effect in inhibiting S180 tumors (in words)” value (S180 sarcoma [1]; joint administration with DDP) was “fine coordinating effect; also recorded: excellent coordinating effect”. The 0 d weight (S180 sarcoma [2]; Dosage 50 mg/kg) was 21.06 ± 0.82 g, the “11 d weight without tumor” value (S180 sarcoma [2]; Dosage 50 mg/kg) was 25.89 ± 3.32 g and the “Tumor inhibiting rate %” value (S180 sarcoma [2]; Dosage 50 mg/kg) was 44%. For the same molecule, the Tumor weight (S180 sarcoma [2]; Dosage 50 mg/kg) was 1.63 ± 1.43 g, the 0 d weight (S180 sarcoma [2]; Dosage 100 mg/kg) was 20.46 ± 1.03 g and the “11 d weight without tumor” value (S180 sarcoma [2]; Dosage 100 mg/kg) was 28.42 ± 4.13 g. The “Tumor inhibiting rate %” value (S180 sarcoma [2]; Dosage 100 mg/kg) was 29%, the Tumor weight (S180 sarcoma [2]; Dosage 100 mg/kg) was 2.07 ± 1.03 g and the 0 d weight (S180 sarcoma [2]; Dosage 200 mg/kg) was 20.45 ± 0.86 g. For the same molecule, the “11 d weight without tumor” value (S180 sarcoma [2]; Dosage 200 mg/kg) was 27.10 ± 2.44 g, the “Tumor inhibiting rate %” value (S180 sarcoma [2]; Dosage 200 mg/kg) was 54% and the Tumor weight (S180 sarcoma [2]; Dosage 200 mg/kg) was 1.34 ± 0.53 g. The “inhibitory effect on S180 tumors (in words)” value (S180 sarcoma [2]; result analysis) was “excellent inhibitory effect”, the “water solubility (in words)” value (Water solubility) was “good water solubility” and the “Tumor inhibiting rate %” value (Lewis lung cancer; Dosage 50 mg/kg) was 35.5%. For the same molecule, the Tumor weight (Lewis lung cancer; Dosage 50 mg/kg) was 3.03 ± 0.55 g, the “Tumor inhibiting rate %” value (Lewis lung cancer; Dosage 100 mg/kg) was 36.4% and the Tumor weight (Lewis lung cancer; Dosage 100 mg/kg) was 2.99 ± 0.50 g. The “Tumor inhibiting rate %” value (Lewis lung cancer; Dosage 200 mg/kg) was 52.1%, the Tumor weight (Lewis lung cancer; Dosage 200 mg/kg) was 2.25 ± 0.75 g and the “inhibiting the tumor in murine model of Lewis lung cancer (in words)” value (Lewis lung cancer; alone) was “quite effective”. For the same molecule, the “inhibiting the tumors in murine model of Lewis lung cancer (in words)” value (Lewis lung cancer; joint administration with DDP) was “certain coordinated effect”.
